Values joined by “and” are separate entries in the source; they are usually repeats but may differ in a detail not shown here. Equal entries are not always repeated. Where two headings read alike, the source gives them in different places.
Tests used:
[1] = tested on: HaCaT noncancerous keratinocyte cell line; assay: MTT cell viability assay, 72 h, HaCaT; format: cell-based; settings: for IC50: Homo sapiens, HaCaT, MTT assay, 72 h incubation, mean ± SD; for activity against HaCaT compared with cancer lines: in words
Protocol: (§1) Compounds 7–36 and 47–54 were tested regarding their effect on growth of three human cancer cell lines: colon cancer HCT-116, breast cancer MCF-7 and cervical cancer HeLa, as well as on noncancerous keratinocyte cell line HaCaT. Cell viability was measured with MTT assay after 72 h of incubation with tested compound in five concentration 1–100 μM. The MTT test enables us to quantify the living cells by measuring the activity of mitochondrial enzymes, enables reducing tetrazolium dye MTT to purple formazan. In this manner, IC50—molar concentration [µM] that inhibits 50% net cell growth—was determined (Table 1 and Table 2).
(§2) All chemicals, if not stated otherwise, were obtained from Sigma-Aldrich (St. Louis, MO, USA). The MCF-7, HeLa and HaCaT cell lines were purchased from Cell Lines Services (Eppelheim, Germany), the HCT-116 cell line were obtained from ATCC (ATCC-No: CCL-247). Cells were cultured in Dulbecco’s modified Eagle’s medium (DMEM) supplemented with 10% fetal bovine serum, 2 mM glutamine, 100 units/mL penicillin, and 100 μg/mL streptomycin. Cultures were maintained in a humidified atmosphere with 5% CO2 at 37 °C in an incubator (HeraCell, Heraeus, Langenselbold, Germany). Cell viability was determined using the MTT [3-(4,5-dimethylthiazol-2-yl)-2,5-diphenyl-tetrazolium bromide] assay. Stock solutions of the studied compounds were obtained in 100% DMSO. […] Cells were seeded in 96-well plates at a density of 5 × 10^3 cells/well and treated for 72 h with the examined compounds in the concentration range 1–100 μM (1, 10, 25, 50 and 100 μM). Following treatment, MTT (0.5 mg/mL) was added to the medium and cells were further incubated for 2 h at 37 °C. Cells were lysed with DMSO and the absorbance of the formazan solution was measured at 550 nm with a plate reader Victor 1420 multilabel counter, (PerkinElmer, Inc. Waltham, MA USA). […] The experiment was performed in triplicate. Values are expressed as the mean ± SD of at least three independent experiments

[2] = tested on: HCT-116 cells (colon cancer); assay: MTT cell viability assay, 72 h, HCT-116; format: cell-based, human; settings: for IC50: MTT assay, 72 h incubation, mean ± SD
Protocol: as §1, §2

[3] = tested on: MCF-7 cells (breast cancer); assay: MTT cell viability assay, 72 h, MCF-7; format: cell-based, human; settings: for IC50: Homo sapiens, MCF7, 72 h, MTT assay, 72 h incubation, mean ± SD
Protocol: as §1, §2

[4] = tested on: HeLa cells (cervical cancer); assay: MTT cell viability assay, 72 h, HeLa; format: cell-based, human; settings: for IC50: Homo sapiens, HeLa, 72 h, MTT assay, 72 h incubation, mean ± SD
Protocol: as §1, §2

[5] = tested on: HaCaT noncancerous keratinocyte cell line; parameters: method as in PMID 28364658; settings: MTT assay, 72 h incubation; compounds marked [18] ref 18; cited from earlier work

Row | SMILES | IC50 ([2]; Homo sapiens, HCT-116, 72 h) | IC50 [3] | IC50 [4] | IC50 [1] | also measured
1 | NS(=O)(=O)c1cc(-c2nnc(/C=C/c3ccccc3)o2)c(Cl)cc1SCc1ccccc1 [Compound 8] |  |  |  |  | IC50 [5]: 20 ± 1 µM; activity against HaCaT compared with cancer lines [1]: at the same level as against cancer lines
2 | NS(=O)(=O)c1cc(-c2nnc(/C=C/c3ccc(Br)cc3)o2)c(Cl)cc1SCc1ccccc1 [Compound 16] |  |  |  |  | IC50 [5]: 31 ± 1 µM
3 | NS(=O)(=O)c1cc(-c2nnc(/C=C/c3ccc(O)cc3)o2)c(Cl)cc1SCc1ccccc1 [Compound 18, (E)-2-(Benzylthio)-4-chloro-5-(5-(4-hydroxystyryl)-1,3,4-oxadiazol-2-yl)benzenesulfonamide] | 18 ± 1 µM | 59 ± 3 µM | 18.2 ± 0.5 µM | 25.6 ± 0.5 µM | activity against HaCaT compared with cancer lines [1]: at the same level as against cancer lines
4 | NS(=O)(=O)c1cc(-c2nnc(/C=C/c3cccc(Cl)c3)o2)c(Cl)cc1Cl [Compound 9, (E)-2,4-Dichloro-5-(5-(3-chlorostyryl)-1,3,4-oxadiazol-2-yl)benzenesulfonamide] | 24 ± 1 µM | 150 ± 10 µM | 19 ± 1 µM | 98 ± 2 µM | 
5 | N#Cc1ccc(/C=C/c2nnc(-c3cc(S(N)(=O)=O)c(Cl)cc3Cl)o2)cc1 [Compound 19, (E)-2,4-Dichloro-5-(5-(4-cyanostyryl)-1,3,4-oxadiazol-2-yl)benzenesulfonamide] | 13.7 ± 0.5 µM | 10 ± 0.3 µM | 117 ± 6 µM | 102 ± 3 µM | 
6 | NS(=O)(=O)c1cc(-c2nnc(/C=C/c3c(Cl)cccc3Cl)o2)c(Cl)cc1SCc1ccccc1 [Compound 14] |  |  |  |  | IC50 [5]: 160 ± 2 µM
7 | NS(=O)(=O)c1cc(-c2nnc(/C=C/c3ccc(C(F)(F)F)cc3)o2)c(Cl)cc1SCc1ccccc1 [Compound 22, (E)-2-(Benzylthio)-4-chloro-5-(5-(4-(trifluoromethyl)styryl)-1,3,4-oxadiazol-2-yl)benzenesulfonamide] | 15.2 ± 0.1 µM | 30 ± 1 µM | 33.4 ± 0.5 µM | 33 ± 1 µM | 

Continued, in another order:

Row | IC50 ([2]; Homo sapiens, HCT-116, 72 h) | IC50 [3] | IC50 [4] | SMILES | IC50 [1] | also measured
8 | 25 ± 1 µM | 115 ± 3 µM | 130 ± 6 µM | NS(=O)(=O)c1cc(-c2nnc(/C=C/c3ccccn3)o2)c(Cl)cc1SCc1ccccc1 [Compound 28, (E)-2-(Benzylthio)-4-chloro-5-(5-(2-(pyridin-2-yl)vinyl)-1,3,4-oxadiazol-2-yl)benzenesulfonamide] | 140 ± 10 µM | melting point: 254 to 257 °C (dec.)
9 | 39 ± 1 µM | 40 ± 1 µM | 73 ± 3 µM | NS(=O)(=O)c1cc(-c2nnc(/C=C/c3ccc[nH]3)o2)c(Cl)cc1Cl [Compound 36, (E)-5-(5-(2-(1H-Pyrrol-2-yl)vinyl)-1,3,4-oxadiazol-2-yl)-2,4-dichlorobenzenesulfonamide] | 98 ± 4 µM | 
10 | 27.8 ± 0.3 µM | 62 ± 1 µM | 85 ± 3 µM | NS(=O)(=O)c1cc(-c2nnc(/C=C/c3ccco3)o2)c(Cl)cc1SCc1ccccc1 [Compound 34, (E)-2-(Benzylthio)-4-chloro-5-(5-(2-(furan-2-yl)vinyl)-1,3,4-oxadiazol-2-yl)benzenesulfonamide] | 91 ± 3 µM | 
11 | 0.5 to 4.5 µM |  |  | NS(=O)(=O)c1cc(-c2nnc(/C=C/c3ccc([N+](=O)[O-])s3)o2)c(Cl)cc1Cl [Compound 31, (E)-2,4-Dichloro-5-(5-(2-(5-nitrothiophen-2-yl)vinyl)-1,3,4-oxadiazol-2-yl)benzenesulfonamide] | 8.1 ± 0.5 µM | IC50 [2]: 0.5 µM and 0.52 µM; increase of activity towards HCT-116 on addition of nitro group (31 vs 29) ([2]; compared with compound 29): over 200 times; increase of activity towards MCF-7 on addition of nitro group (31 vs 29) ([3]; compared with compound 29): 43 times; increase of activity towards HeLa on addition of nitro group (31 vs 29) ([4]; compared with compound 29): 54 times
12 | 33 ± 1 µM | 170 ± 9 µM | 210 ± 8 µM | NS(=O)(=O)c1cc(-c2nnc(/C=C/c3ccco3)o2)c(Cl)cc1Cl [Compound 33, (E)-2,4-Dichloro-5-(5-(2-(furan-2-yl)vinyl)-1,3,4-oxadiazol-2-yl)benzenesulfonamide] | 200 ± 12 µM | 

— paper PMC7139731, “Synthesis, Anticancer Evaluation and Structure-Activity Analysis of Novel (E)- 5-(2-Arylvinyl)-1,3,4-oxadiazol-2-yl)benzenesulfonamides” (International Journal of Molecular Sciences, 2020)
